According to patent publication US20200062767A1, “SUBSTITUTED PYRROLIDINYL AND PIPERIDINYL PYRAZOLOPYRIDAZINE DERIVATIVES HAVING MULTIMODAL ACTIVITY AGAINST PAIN” (ESTEVE PHARMACEUTICALS, S.A., priority 2017, published 2020):

What was measured:
[1] = biological target: Human α2δ−1 subunit of Cav2.2 calcium channel (Homo sapiens, UniProt P54289); experiment: Human α2δ−1 subunit of Cav2.2 calcium channel assay; conditions: expressed as Ki; [3H]-Gabapentin, human α2δ−1 enriched membranes; read-out: Binding α2δ-1
Sequence of Human α2δ−1 subunit of Cav2.2 calcium channel (P54289 25-1103): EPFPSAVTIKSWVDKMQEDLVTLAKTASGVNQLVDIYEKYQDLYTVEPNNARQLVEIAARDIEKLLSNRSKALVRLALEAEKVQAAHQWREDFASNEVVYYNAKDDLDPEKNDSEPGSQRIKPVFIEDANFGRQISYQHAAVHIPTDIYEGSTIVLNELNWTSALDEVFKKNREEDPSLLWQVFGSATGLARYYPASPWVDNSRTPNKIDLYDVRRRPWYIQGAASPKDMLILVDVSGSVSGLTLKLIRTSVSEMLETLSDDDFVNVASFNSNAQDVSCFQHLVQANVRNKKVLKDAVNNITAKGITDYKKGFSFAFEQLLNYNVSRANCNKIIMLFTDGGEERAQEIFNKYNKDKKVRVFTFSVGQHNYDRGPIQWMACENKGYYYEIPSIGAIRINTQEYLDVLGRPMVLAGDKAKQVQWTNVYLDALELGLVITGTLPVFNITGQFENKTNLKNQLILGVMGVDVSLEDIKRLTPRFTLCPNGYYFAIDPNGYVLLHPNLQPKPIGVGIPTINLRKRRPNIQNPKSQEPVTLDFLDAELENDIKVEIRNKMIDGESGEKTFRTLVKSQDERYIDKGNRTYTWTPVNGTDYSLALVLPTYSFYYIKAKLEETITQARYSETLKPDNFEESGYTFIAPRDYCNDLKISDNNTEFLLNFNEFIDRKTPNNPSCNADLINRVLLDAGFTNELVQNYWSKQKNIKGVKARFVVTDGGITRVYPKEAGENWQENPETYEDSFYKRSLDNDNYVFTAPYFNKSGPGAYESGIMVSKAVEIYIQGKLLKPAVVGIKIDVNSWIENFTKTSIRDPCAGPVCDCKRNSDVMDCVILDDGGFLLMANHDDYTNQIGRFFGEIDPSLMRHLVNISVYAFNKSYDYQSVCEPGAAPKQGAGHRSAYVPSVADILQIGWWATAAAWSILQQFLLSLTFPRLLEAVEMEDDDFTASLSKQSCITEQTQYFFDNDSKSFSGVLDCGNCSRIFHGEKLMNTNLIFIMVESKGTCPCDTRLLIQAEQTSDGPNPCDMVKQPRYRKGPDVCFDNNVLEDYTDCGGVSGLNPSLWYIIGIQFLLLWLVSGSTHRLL
Description: Human α2δ−1 Subunit of Cav2.2 Calcium Channel Assay Human α2δ−1 enriched membranes (2.5 μg) were incubated with 15 nM of radiolabeled [3H]-Gabapentin in assay buffer containing Hepes-KOH 10 mM, pH 7.4. NSB (non specific binding) was measured by adding 10 μM pregabalin. The binding of the test compound was measured at five different concentrations. After 60 min incubation at 27° C., binding reaction was terminated by filtering through Multiscreen GF/C (Millipore) presoaked in 0.5% polyethyleneimine in Vacuum Manifold Station, followed by 3 washes with ice-cold filtration buffer containing 50 mM Tris-HCl, pH 7.4.
Filter plates were dried at 60° C. for 1 hour and 30 μL of scintillation cocktail were added to each well before radioactivity reading. Readings were performed in a Trilux 1450 Microbeta radioactive counter (Perkin Elmer).

[2] = biological target: Human norepinephrine transporter (NET) (Homo sapiens, UniProt P23975); experiment: Binding assay to human norepinephrine transporter (NET); conditions: expressed as Ki; [3H]-Nisoxetin, human NET enriched membranes
Sequence of Human norepinephrine transporter (NET) (P23975 whole entry): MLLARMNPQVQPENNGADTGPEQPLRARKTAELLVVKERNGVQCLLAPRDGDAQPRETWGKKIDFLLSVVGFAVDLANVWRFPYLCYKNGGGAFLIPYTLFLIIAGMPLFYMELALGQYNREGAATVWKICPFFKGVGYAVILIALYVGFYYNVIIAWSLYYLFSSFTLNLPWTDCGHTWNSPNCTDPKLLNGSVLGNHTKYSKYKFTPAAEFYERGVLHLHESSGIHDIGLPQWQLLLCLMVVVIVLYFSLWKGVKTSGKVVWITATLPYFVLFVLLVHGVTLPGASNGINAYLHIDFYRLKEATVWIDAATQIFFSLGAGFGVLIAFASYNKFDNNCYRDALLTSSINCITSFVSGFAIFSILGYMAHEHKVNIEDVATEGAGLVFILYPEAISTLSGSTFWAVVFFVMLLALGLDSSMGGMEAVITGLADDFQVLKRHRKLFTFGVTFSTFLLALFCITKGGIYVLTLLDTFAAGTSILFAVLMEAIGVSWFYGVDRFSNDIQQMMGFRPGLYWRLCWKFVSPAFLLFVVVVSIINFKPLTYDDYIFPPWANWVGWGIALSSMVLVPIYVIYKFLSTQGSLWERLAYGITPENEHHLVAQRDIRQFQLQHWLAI
Description: Binding Assay to Human Norepinephrine Transporter (NET).
Human norepinephrine transporter (NET) enriched membranes (5 μg) were incubated with 5 nM of radiolabeled [3H]-Nisoxetin in assay buffer containing 50 mM Tris-HCl, 120 mM NaCl, 5 mM KCl, pH 7.4.
NSB (non specific binding) was measured by adding 10 μM of desipramine. The binding of the test compound was measured at five different concentrations. After 60 min incubation at 4° C., binding reaction was terminated by filtering through Multiscreen GF/C (Millipore) presoaked in 0.5% polyethyleneimine in Vacuum Manifold Station, followed by 3 washes with ice-cold filtration buffer containing 50 mM Tris-HCl, 0.9% NaCl, pH 7.4.
Filter plates were dried at 60° C. for 1 hour and 30 μL of scintillation cocktail were added to each well before radioactivity reading.
Readings were performed in a Trilux 1450 Microbeta radioactive counter (Perkin Elmer).

| Compound | Ki [1] | Ki [2] |
| --- | --- | --- |
| CCOc1ccc(-n2nc3c(N4CC[C@H](NCc5cccc(O)c5)C4)nnc(C)c3c2C)c(F)c1 [Example 3, (S)-3-(((1-(2-(4-ethoxy-2-fluorophenyl)-3,4-dimethyl-2H-pyrazolo[3,4-d]pyridazin-7-yl)pyrrolidin-3-yl)amino)methyl)phenol] | < 500 nM | 100 to 500 nM |
| CCOc1ccc(-n2nc3c(N4CC[C@H](NCc5ccccn5)C4)nnc(C)c3c2C)c(F)c1 [Example 4, (S)-1-(2-(4-ethoxy-2-fluorophenyl)-3,4-dimethyl-2H-pyrazolo[3,4-d]pyridazin-7-yl)-N-(pyridin-2-ylmethyl)pyrrolidin-3-amine] | < 500 nM | ≥ 1000 nM |
| CCOc1ccc(-n2nc3c(N4CC[C@H](NCCc5ccc(F)cc5)C4)nnc(C)c3c2C)c(F)c1 [Example 5, (S)-1-(2-(4-ethoxy-2-fluorophenyl)-3,4-dimethyl-2H-pyrazolo[3,4-d]pyridazin-7-yl)-N-(4-fluorophenethyl)pyrrolidin-3-amine] | < 500 nM | ≥ 1000 nM |
| CCOc1ccc(-n2nc3c(N4CC[C@@H](NCc5ccccc5)C4)nnc(C)c3c2C)c(F)c1 [Example 10, (R)-N-benzyl-1-(2-(4-ethoxy-2-fluorophenyl)-3,4-dimethyl-2H-pyrazolo[3,4-d]pyridazin-7-yl)pyrrolidin-3-amine] | < 500 nM | 100 to 500 nM |
| CCOc1ccc(-n2nc3c(N4CC[C@H](NCc5ccncc5)C4)nnc(C)c3c2C)c(F)c1 [Example 12, (S)-1-(2-(4-ethoxy-2-fluorophenyl)-3,4-dimethyl-2H-pyrazolo[3,4-d]pyridazin-7-yl)-N-(pyridin-4-ylmethyl)pyrrolidin-3-amine] | < 500 nM | ≥ 1000 nM |
| CCOc1ccc(-n2nc3c(N4CC[C@H](NCc5cncc(F)c5)C4)nnc(C)c3c2C)c(F)c1 [Example 14, (S)-1-(2-(4-ethoxy-2-fluorophenyl)-3,4-dimethyl-2H-pyrazolo[3,4-d]pyridazin-7-yl)-N-((5-fluoropyridin-3-yl)methyl)pyrrolidin-3-amine] | ≥ 5000 nM | ≥ 1000 nM |
| CCOc1ccc(-n2nc3c(N4CC[C@H](N(C)Cc5cccc(O)c5)C4)nnc(C)c3c2C)c(F)c1 [Example 15, (S)-3-(((1-(2-(4-Ethoxy-2-fluorophenyl)-3,4-dimethyl-2H-pyrazolo[3,4-d]pyridazin-7-yl)pyrrolidin-3-yl)(methyl)amino)methyl)phenol] | < 500 nM | ≥ 1000 nM |
| CCOc1ccc(-n2nc3c(N4CCC[C@H](N(C)C)C4)nnc(C)c3c2C)c(F)c1 [Example 17, (S)-1-(2-(4-ethoxy-2-fluorophenyl)-3,4-dimethyl-2H-pyrazolo[3,4-d]pyridazin-7-yl)-N,N-dimethylpiperidin-3-amine] | 500 to 5000 nM | ≥ 1000 nM |
| CCOc1ccc(-n2nc3c(N4CC[C@H](NC(=O)Cc5cccnc5)C4)nnc(C)c3c2C)c(F)c1 [Example 19, (S)-N-(1-(2-(4-ethoxy-2-fluorophenyl)-3,4-dimethyl-2H-pyrazolo[3,4-d]pyridazin-7-yl)pyrrolidin-3-yl)-2-(pyridin-3-yl)acetamide] | < 500 nM | ≥ 1000 nM |

Next, values leading:

| Ki [1] | Ki [2] | Compound |
| --- | --- | --- |
| < 500 nM | 100 to 500 nM | CCOc1ccc(-n2nc3c(N4CC[C@H](NCc5ccccc5)C4)nnc(C)c3c2C)c(F)c1 [Example 1, (S)-N-Benzyl-1-(2-(4-ethoxy-2-fluorophenyl)-3,4-dimethyl-2H-pyrazolo[3,4-d]pyridazin-7-yl)pyrrolidin-3-amine] |
| < 500 nM | 500 to 1000 nM | CCOc1ccc(-n2nc3c(N4CC[C@H](NCCc5ccccc5)C4)nnc(C)c3c2C)c(F)c1 [Example 2, (S)-1-(2-(4-ethoxy-2-fluorophenyl)-3,4-dimethyl-2H-pyrazolo[3,4-d]pyridazin-7-yl)-N-phenethylpyrrolidin-3-amine] |
| < 500 nM | 500 to 1000 nM | CCOc1ccc(-n2nc3c(N4CC[C@H](NCc5cccc(OC)c5)C4)nnc(C)c3c2C)c(F)c1 [Example 6, (S)-1-(2-(4-ethoxy-2-fluorophenyl)-3,4-dimethyl-2H-pyrazolo[3,4-d]pyridazin-7-yl)-N-(3-methoxybenzyl)pyrrolidin-3-amine] |
| < 500 nM | < 100 nM | CCOc1ccc(-n2nc3c(N4CC[C@H](NCc5ccc(F)c(F)c5)C4)nnc(C)c3c2C)c(F)c1 [Example 7, (S)-N-(3,4-difluorobenzyl)-1-(2-(4-ethoxy-2-fluorophenyl)-3,4-dimethyl-2H-pyrazolo[3,4-d]pyridazin-7-yl)pyrrolidin-3-amine] |
| < 500 nM | 100 to 500 nM | CCOc1ccc(-n2nc3c(N4CC[C@@H](NCc5cccc(O)c5)C4)nnc(C)c3c2C)c(F)c1 [Example 8, (R)-3-(((1-(2-(4-ethoxy-2-fluorophenyl)-3,4-dimethyl-2H-pyrazolo[3,4-d]pyridazin-7-yl)pyrrolidin-3-yl)amino)methyl)phenol] |
| < 500 nM | 100 to 500 nM | CCOc1ccc(-n2nc3c(N4CC[C@H](NCc5ccccc5O)C4)nnc(C)c3c2C)c(F)c1 [Example 9, (S)-2-(((1-(2-(4-ethoxy-2-fluorophenyl)-3,4-dimethyl-2H-pyrazolo[3,4-d]pyridazin-7-yl)pyrrolidin-3-yl)amino)methyl)phenol] |
| < 500 nM | 500 to 1000 nM | CCOc1ccc(-n2nc3c(N4CC[C@H](NCc5cccnc5)C4)nnc(C)c3c2C)c(F)c1 [Example 11, (S)-1-(2-(4-ethoxy-2-fluorophenyl)-3,4-dimethyl-2H-pyrazolo[3,4-d]pyridazin-7-yl)-N-(pyridin-3-ylmethyl)pyrrolidin-3-amine] |
| < 500 nM | 500 to 1000 nM | CCOc1ccc(-n2nc3c(N4CC[C@H](NCc5ncccc5F)C4)nnc(C)c3c2C)c(F)c1 [Example 13, (S)-1-(2-(4-ethoxy-2-fluorophenyl)-3,4-dimethyl-2H-pyrazolo[3,4-d]pyridazin-7-yl)-N-((3-fluoropyridin-2-yl)methyl)pyrrolidin-3-amine] |
| < 500 nM | 500 to 1000 nM | CCOc1ccc(-n2nc3c(N4CC[C@H](N(C)Cc5ccccc5)C4)nnc(C)c3c2C)c(F)c1 [Example 16, (S)-N-benzyl-1-(2-(4-ethoxy-2-fluorophenyl)-3,4-dimethyl-2H-pyrazolo[3,4-d]pyridazin-7-yl)-N-methylpyrrolidin-3-amine] |
| < 500 nM | ≥ 1000 nM | CCOc1ccc(-n2nc3c(N4CC[C@H](NC(=O)Cc5ccccn5)C4)nnc(C)c3c2C)c(F)c1 [Example 18, (S)-N-(1-(2-(4-Ethoxy-2-fluorophenyl)-3,4-dimethyl-2H-pyrazolo[3,4-d]pyridazin-7-yl)pyrrolidin-3-yl)-2-(pyridin-2-yl)acetamide] |
